Test results from US8134015B2, “Compound inhibiting in vivo phosphorous transport and medicine containing the same” (Kyowa Hakko Kirin Co., Ltd., priority 2003, dated 2012).

Target: T1, rat NaPi-2b (Rattus norvegicus, UniProt Q9JJ09)
T1 construct: expressed in transfected cells; host or cells: Xenopus oocytes injected with cRNA
T1 sequence (Q9JJ09 1-695): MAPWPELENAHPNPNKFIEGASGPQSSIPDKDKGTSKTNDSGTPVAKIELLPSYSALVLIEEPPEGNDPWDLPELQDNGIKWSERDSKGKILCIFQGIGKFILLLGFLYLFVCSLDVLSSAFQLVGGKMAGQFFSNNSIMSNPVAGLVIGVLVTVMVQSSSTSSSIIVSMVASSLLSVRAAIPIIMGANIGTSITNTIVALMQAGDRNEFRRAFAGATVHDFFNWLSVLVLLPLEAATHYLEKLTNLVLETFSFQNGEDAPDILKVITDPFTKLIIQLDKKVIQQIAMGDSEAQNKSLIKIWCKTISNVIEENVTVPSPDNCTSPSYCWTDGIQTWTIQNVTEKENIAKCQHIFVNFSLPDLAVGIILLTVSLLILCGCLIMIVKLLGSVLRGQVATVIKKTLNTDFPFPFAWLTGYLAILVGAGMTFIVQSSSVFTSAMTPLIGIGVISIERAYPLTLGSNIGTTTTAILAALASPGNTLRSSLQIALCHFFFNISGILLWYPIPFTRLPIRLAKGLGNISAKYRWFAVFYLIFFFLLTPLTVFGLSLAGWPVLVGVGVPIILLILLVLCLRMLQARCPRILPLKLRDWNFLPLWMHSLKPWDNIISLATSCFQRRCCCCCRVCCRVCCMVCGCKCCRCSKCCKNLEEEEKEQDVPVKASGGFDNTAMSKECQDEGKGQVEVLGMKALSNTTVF
Test: Sodium-dependent phosphate uptake of Xenopus oocytes which expressed NaPi-2b (32P)
Type: cell-based
Details: for IC50: Xenopus oocytes expressing rat NaPi-2b, 32P radioactive phosphorus, read-out: IC50 (phosphate uptake inhibitory activity); for inhibition at 300 µM: phosphate uptake, oocytes expressing rat NaPi-2b, determined from inhibition curve
In short: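 Rat small-intestine NaPi-2b cRNA injected into Xenopus oocytes, expressed for 2 days. Sodium-dependent phosphate uptake measured with 32P; % inhibition at 300 and 100 μM taken from the same inhibition curve.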

IC50	inhibition at 300 µM	SMILES
3.72 µM		Cc1ccc(/C=N/NC(=O)c2c(NC(=O)c3cccc(CN4CCC(CO)CC4)c3)sc3ccccc23)cc1 [Compound 799, 3-(4-Hydroxymethyl-piperidin-1-ylmethyl)-N-[3-(4-methyl-benzylidene-hydrazinocarbonyl)-benzo[b]thiophen-2-yl]-benzamide]
	47.8%	Cc1ccc(/C=N/NC(=O)c2cc(Cl)ccc2NC(=O)c2cccc(CN(C)CCCCCCN(C)Cc3cccc(C(=O)Nc4ccc(Cl)cc4C(=O)N/N=C/c4ccc(C)cc4)c3)c2)cc1 [Compound 706, N1-[4-Chloro-2-({2-[(E)-1-(4-methylphenyl)methylidene]hydrazino}carbonyl}phenyl}-3-{[{6-[(3-{[4-chloro-2-({2-[(E)-1-(4-methylphenyl)methylidene]hydrazino}carbonyl}-anilino}carbonyl}benzyl}(methyl)amino)hexyl)(methyl)amino]methyl]-benzamide]
2.89 µM		CCN(CC)CCN(C)Cc1ccc(C(=O)Nc2ccc(Br)cc2C(=O)N/N=C/c2ccc(Cl)c(C(F)(F)F)c2)cc1 [Compound 289, N-[4-Bromo-2-(4-chloro-3-trifluoromethyl-benzylidene-hydrazinocarbonyl)-phenyl]-4-{[(2-diethylamino-ethyl)-methyl-amino]-methyl}-benzamide]
1.11 µM		COc1cc(OC)cc(C(=O)Nc2ccccc2C(=O)N/N=C/c2ccc(Cl)c(C(F)(F)F)c2)c1 [Compound 89, N-[2-(4-Chloro-3-trifluoromethyl-benzylidene-hydrazinocarbonyl)-phenyl]-3,5-dimethoxy-benzamide]
7.68 µM		COc1ccc(C(=O)Nc2ccc(C)cc2C(=O)N/N=C/c2ccc(F)cc2)cc1OC [Compound 147, N-[2-(4-Fluoro-benzylidene-hydrazinocarbonyl)-4-methyl-phenyl]-3,4-dimethoxy-benzamide]
54.3 µM		Cc1ccc(/C=N/NC(=O)c2cc(Cl)ccc2NC(=O)c2cccc(CN(C)CCCN(C)Cc3cccc(C(=O)Nc4ccc(Cl)cc4C(=O)N/N=C/c4ccc(C)c(C)c4)c3)c2)cc1C [Compound 684, N1-[4-Chloro-2-({2-[(E)-1-(3,4-dimethylphenyl)methylidene]hydrazino}carbonyl}phenyl}-3-{[{3-[(3-{[4-chloro-2-({2-[(E)-1-(3,4-dimethylphenyl)methylidene]hydrazino}carbonyl}anilino}carbonyl}benzyl}(methyl)amino)propyl](methyl)amino)methyl)benzamide]
< 3 µM		Cc1ccc(/C=N/NC(=O)c2c(C)csc2NC(=O)c2cccc(CN3CCN(CCO)CC3)c2)cc1C [Compound 575, N-[3-(3,4-Dimethyl-benzylidene-hydrazinocarbonyl)-4-methyl-thiophen-2-yl]-3-[4-(2-hydroxy-ethyl)-piperazin-1-ylmethyl]-benzamide]
6.07 µM		COc1cc(OC)cc(C(=O)Nc2ccc(Br)cc2C(=O)NN=Cc2cccc(C)c2)c1 [Compound 118, N-[4-Bromo-2-(3-methyl-benzylidene-hydrazinocarbonyl)-phenyl]-3,5-dimethoxy-benzamide]
	58.9%	CCOCCN(CCOCC)Cc1ccc(C(=O)Nc2ccc(Br)cc2C(=O)N/N=C/c2ccc(OC)cc2)cc1 [Compound 739, 4-{[Bis-(2-ethoxy-ethyl)-amino]-methyl}-N-[4-bromo-2-(4-methoxy-benzylidene-hydrazinocarbonyl)-phenyl]-benzamide]
4.03 µM		COc1ccc(C(=O)Nc2ccccc2C(=O)N/N=C/c2cccc(O)c2)cc1OC [Compound 18, N-[2-(3-Hydroxy-benzylidene-hydrazinocarbonyl)-phenyl]-3,4-dimethoxy-benzamide]
0.6 µM		Cc1ccc(/C=N/NC(=O)c2cc(Br)ccc2NC(=O)c2ccccn2)cc1 [Compound 498, Pyridin-2-carboxylic acid [4-bromo-2-(4-methyl-benzylidene-hydrazinocarbonyl)-phenyl]-amide]

Continued, molecule first:

SMILES	IC50	inhibition at 300 µM
CCN(CC)c1ccc(/C=N/NC(=O)c2ccccc2NC(=O)c2ccc(OC)c(OC)c2)cc1 [Compound 241, N-[2-(4-Diethylamino-benzylidene-hydrazinocarbonyl)-phenyl]-3,4-dimethoxy-benzamide]		46.9%
Cc1ccc(/C=N/NC(=O)c2c(C)csc2NC(=O)c2cccc(CN3CCN(CCO)CC3)c2)cc1 [Compound 576, 3-[4-(2-Hydroxy-ethyl)-piperazin-1-ylmethyl]-N-[4-methyl-3-(4-methyl-benzylidene-hydrazinocarbonyl)-thiophen-2-yl]-benzamide]	< 3 µM	
COc1cc(OC)cc(C(=O)Nc2ccccc2C(=O)N/N=C/c2ccc(C)c(C)c2)c1 [Compound 93, N-[2-(3,4-Dimethyl-benzylidene-hydrazinocarbonyl)-phenyl]-3,5-dimethoxy-benzamide]	11 µM	
O=C(Nc1ccc(Cl)cc1C(=O)N/N=C/c1ccc(Cl)c(C(F)(F)F)c1)c1cccc(CSCC(O)CO)c1 (stereo not drawn) [Compound 1010, N-[4-Chloro-2-(4-chloro-3-trifluoromethyl-benzylidene-hydrazinocarbonyl)-phenyl]-3-(2,3-dihydroxy-propylsulfanylmethyl)-benzamide]	0.24 µM	
O=C(Nc1sccc1C(=O)N/N=C/c1ccc(Cl)c(C(F)(F)F)c1)c1cccc(CSCCCO)c1 [Compound 662, N-[3-(4-Chloro-3-trifluoromethyl-benzylidene-hydrazinocarbonyl)-thiophen-2-yl]-3-(3-hydroxy-propylsulfanylmethyl)-benzamide]	3.2 µM	
O=C(Nc1ccc(Cl)cc1C(=O)N/N=C/c1cccc(O)c1)c1cccc(CN(CCO)CCO)c1 [Compound 410, 3-{[Bis-(2-hydroxy-ethyl)-amino]-methyl}-N-[4-chloro-2-(3-hydroxy-benzylidene-hydrazinocarbonyl)-phenyl]-benzamide]	4.05 µM	
COc1ccc(/C=N/NC(=O)c2cc(OC)ccc2NC(=O)c2cccc(CSCC(O)CO)c2)cc1 (stereo not drawn) [Compound 1021, 3-(2,3-Dihydroxy-propylsulfanylmethyl)-N-[4-methoxy-2-(4-methoxy-benzylidene-hydrazinocarbonyl)-phenyl]-benzamide]	5.57 µM	
COc1ccc(/C=N/NC(=O)c2c(NC(=O)c3cccc(CN4CCN(CCO)CC4)c3)sc3c2CCCC3)cc1 [Compound 626, 3-[4-(2-Hydroxy-ethyl)-piperazin-1-ylmethyl]-N-[3-(4-methoxy-benzylidene-hydrazinocarbonyl)-4,5,6,7-tetrahydro-benzo-[b]thiophen-2-yl]-benzamide]	< 3 µM	
Cc1ccc(/C=N/NC(=O)c2ccccc2NC(=O)c2cccc(F)c2)cc1C [Compound 95, N-[2-(3,4-Dimethyl-benzylidene-hydrazinocarbonyl)-phenyl]-3-fluoro-benzamide]	1.27 µM	
O=C(Nc1ccc(Br)cc1C(=O)N/N=C/c1ccc(F)cc1)c1ccc(CN2CCN(CCO)CC2)cc1 [Compound 319, N-[4-Bromo-2-(4-fluoro-benzylidene-hydrazinocarbonyl)-phenyl]-4-[4-(2-hydroxy-ethyl)-piperazin-1-ylmethyl]-benzamide]	9.76 µM	
COc1ccc(/C=N/NC(=O)c2cc3ccccc3cc2NC(=O)c2cccc(CN3CCN(CCO)CC3)c2)cc1 [Compound 973, 3-[4-(2-Hydroxy-ethyl)-piperazin-1-ylmethyl]-N-[3-(4-methoxy-benzylidene-hydrazinocarbonyl)-naphthalen-2-yl]-benzamide]	< 3 µM	
COc1ccc(C(=O)Nc2ccc(Br)cc2C(=O)N/N=C/c2ccc(Cl)cc2)cc1OC [Compound 60, N-[4-Bromo-2-(4-chloro-benzylidene-hydrazinocarbonyl)-phenyl]-3,4-dimethoxy-benzamide]	1.58 µM	
COc1ccc(C(=O)Nc2ccc(Br)cc2C(=O)N/N=C/c2ccc(C)cc2)cc1OC [Compound 62, N-[4-Bromo-2-(4-methyl-benzylidene-hydrazinocarbonyl)-phenyl]-3,4-dimethoxy-benzamide]	0.9 µM	
COc1ccc(C(=O)Nc2cc(Cl)ccc2C(=O)N/N=C/c2ccc(C)cc2)cc1OC [Compound 74, N-[5-Chloro-2-(4-methyl-benzylidene-hydrazinocarbonyl)-phenyl]-3,4-dimethoxy-benzamide]	2.15 µM	
COc1ccc(/C=N/NC(=O)c2cc(N3CCCC3=O)ccc2NC(=O)c2cccc(CN(CC(C)O)CC(C)O)c2)cc1 (stereo not drawn) [Compound 946, 3-{[Bis-(2-hydroxy-propyl)-amino]-methyl}-N-[2-(4-methoxy-benzylidene-hydrazinocarbonyl)-4-(2-oxo-pyrrolidin-1-yl)-phenyl]-benzamide]		45%
CN1CCN(c2ccc(NC(=O)c3cccc(CSCCO)c3)c(C(=O)N/N=C/c3ccc(Cl)c(C(F)(F)F)c3)c2)CC1 [Compound 1072, N-[2-(4-Chloro-3-trifluoromethyl-benzylidene-hydrazinocarbonyl)-4-(4-methyl-piperazin-1-yl)-phenyl]-3-(2-hydroxy-ethylsulfanylmethyl)-benzamide]	3.88 µM	
